Read-outs that look alike come from different tables or passages of the source.
Legend:
Format in all cases: cell-based
[1] = tested on: Giardia intestinalis trophozoites; experiment: In vitro assay on trophozoite form of Giardia intestinalis (resazurin, 48 h); settings: for IC50: Giardia duodenalis, trophozoites, 48 h, read-out: G. intestinalis IC50
Procedure: Trophozoites of Giardia (strain ATCC® 203333) were grown in modified TYI-S-33 medium at pH 7.0, supplemented with 10% heat-inactivated fetal calf serum and 0.5 g bovine bile (Sigma-Aldrich, St Louis, MO, USA), in 20 mL screw-cap culture vials. The assay was carried out according to a previously described method. Detachment of trophozoites for preparation of inoculant was achieved by chilling the cultures on ice for 20 min. Trophozoites (5 × 10^4 parasites/well) were cultured in 96-well plastic plates (Sarstedt, Nümbrecht, Germany). Compounds were dissolved in DMSO. […] To evaluate cell viability, the fluorescence intensity (535 nm-excitation wavelength- and 590 nm-emission wavelength) was determined with a fluorimeter Infinite 200 (Tecan i-Control, Tecan Ibérica Instrumentation S.L., Barcelona, Spain) to calculate the growth inhibition rate (%). All tests were carried out in triplicate. Metronidazole was used as a reference drug. […] All values were expressed as means ± standard error of the mean (S.E.M.). Statistically significant differences between treated and control samples were tested by one-way analysis of variance (ANOVA).

[2] = Cytotoxicity assay on murine macrophages (resazurin, 48 h); settings: mouse, J774 cell line, 48 h
Procedure: (§1) A., Madrid, Spain) at 37 °C and 5% CO2 air atmosphere. The assay was carried out according to a previously described method. […] Growth controls and signal-to-noise were also included. Afterward, a volume of 20 μL of 2.5 mM resazurin solution in PBS was added, and plates were placed again in the incubator for another 3 h to evaluate cell viability. The reduction of resazurin was determined by fluorometry as in the promastigote assay. Each concentration was assayed in triplicate. […] All values were expressed as means ± standard error of the mean (S.E.M.). Statistically significant differences between treated and control samples were tested by one-way analysis of variance (ANOVA).

[3] = tested on: murine macrophage J774 cell line; experiment: as above; settings: for SI: selectivity index (CC50/IC50): J774 macrophages vs G. intestinalis, pure flavonoids (Table 4)
Procedure: as §1

[4] = J774 macrophage cell line, pure flavonoids

COc1cc(O)cc(O)c1C(=O)/C=C/c1cccc(O)c1 [Compound 1, 2′,4′,3-Trihydroxy-6′-methoxychalcone]
IC50 ([1]; pure flavonoids): 7 ± 0.1 µM | CC50 at 48 h [2, 4]: 12.9 ± 0.2 µM | SI: selectivity index (CC50/IC50) [3]: 1.8

COc1cc(O)c(OC)c(O)c1C(=O)/C=C/c1cccc(O)c1 [Compound 2, 2′,4′,3-Trihydroxy-3′,6′-dimethoxychalcone]
IC50 ([1]; pure flavonoids): 47.7 ± 1.2 µM | CC50 at 48 h [2, 4]: 184 ± 2.6 µM | SI: selectivity index (CC50/IC50) [3]: 3.9

COc1cc(O)cc(/C=C/C(=O)c2c(O)cc(O)cc2OC)c1 [Compound 3, 2′,4′,3-Trihydroxy-6′,5-dimethoxychalcone]
IC50 ([1]; pure flavonoids): 6 ± 0.3 µM | CC50 at 48 h [2, 4]: 12 ± 0.1 µM

COc1cc(O)cc(/C=C/C(=O)c2c(O)cc(OC)cc2OC)c1 [Compound 4, 2′,3-Dihydroxy-4′,6′,5-trimethoxychalcone]
IC50 ([1]; pure flavonoids): 0.061 ± 0.001 µM | Antiparasitic potency relative to metronidazole ([1]; IC50 ratio to the reference drug metronidazole): 41 fold | CC50 at 48 h [2, 4]: 14.2 ± 0.2 µM | SI: selectivity index (CC50/IC50) [3]: 233

COc1cccc(/C=C/C(=O)c2c(O)cc(O)cc2OC)c1 [Compound 7, 2′,4′-dihydroxy-3,6′-dimethoxychalchone]
IC50 ([1]; pure flavonoids): 4.7 ± 0.1 µM | CC50 at 48 h [2, 4]: 15.7 ± 0.2 µM

COc1cc(O)cc(O)c1C(=O)/C=C/c1ccccc1 [Compound 8, 2′,4′-dihydroxy-6′-methoxychalchone]
IC50 ([1]; pure flavonoids): 9.6 ± 0.2 µM | CC50 at 48 h ([2]; pure flavonoids): 37.8 ± 1.1 µM

COc1cccc(/C=C/C(=O)c2c(O)cc(OC)cc2OC)c1 [Compound 9, 2′-hydroxy-3,4′,6′-trimethoxychalchone]
IC50 ([1]; pure flavonoids): 10.8 ± 0.1 µM | CC50 at 48 h [2, 4]: 22.6 ± 0.5 µM

COc1cccc(/C=C/C(=O)c2c(OC)cc(O)c(OC)c2O)c1 [Compound 10, 2′,4′-dihydroxy-3,3′,6′-trimethoxychalcone]
IC50 ([1]; pure flavonoids): 32.7 ± 1.3 µM | CC50 at 48 h [2, 4]: 44.2 ± 0.7 µM | SI: selectivity index (CC50/IC50) [3]: 1.4

COc1cc(O)cc(/C=C/C(=O)c2c(OC)cc(OC)c(O)c2O)c1 [Compound 11, 2′,3′,5-trihydroxy-4′,6′,3-trimethoxychalcone]
IC50 ([1]; pure flavonoids): 22.5 ± 0.8 µM | CC50 at 48 h [2, 4]: 48.5 ± 0.8 µM | SI: selectivity index (CC50/IC50) [3]: 2.2

COc1cc(OC)c(C(=O)/C=C/c2ccccc2)c(O)c1O [Compound 12, 2′,3′-dihydroxy-4′,6′-dimethoxychalchone]
IC50 ([1]; pure flavonoids): 7.3 ± 0.6 µM | CC50 at 48 h [2, 4]: 25.3 ± 0.4 µM | SI: selectivity index (CC50/IC50) [3]: 3.5

COc1cc(/C=C/C(=O)c2c(O)cc(O)cc2OC)ccc1O [Compound 14, 2′,4′,4-trihydroxy-3,6′-dimethoxychalchone]
IC50 ([1]; pure flavonoids): 10.4 ± 0.2 µM | CC50 at 48 h [2, 4]: 16.5 ± 0.03 µM | SI: selectivity index (CC50/IC50) [3]: 1.6

COc1cc(O)cc(O)c1C(=O)CCc1ccccc1 [Compound 16, uvangoletin]
IC50 ([1]; pure flavonoids): 70.5 ± 0.3 µM | CC50 at 48 h [2, 4]: > 367 µM | SI: selectivity index (CC50/IC50) [3]: >5.2

COc1cc(O)c2c(c1)O[C@H](c1ccc(O)cc1)CC2=O [Compound 23, sakuranetin]
IC50 ([1]; pure flavonoids): 52.4 ± 2.1 µM | CC50 at 48 h ([2]; pure flavonoids): 184 ± 2.3 µM | SI: selectivity index (CC50/IC50) [3]: 3.5

COc1cccc(C2CC(=O)c3c(OC)cc(OC)cc3O2)c1 (stereo not drawn) [Compound 24, 5,7,3′-trimethoxyflavanone]
IC50 ([1]; pure flavonoids): 49.3 ± 0.9 µM | CC50 at 48 h [2, 4]: 144 ± 2.3 µM | SI: selectivity index (CC50/IC50) [3]: 2.9

Cc1ncc([N+](=O)[O-])n1CCO [Metronidazole, reference compound]
IC50 ([1]; extract, fractions and sub-fractions of Piper delineatum leaves): 0.4 ± 0.1 µg/mL | IC50 ([1]; pure flavonoids): 2.5 ± 0.1 µM | CC50 at 48 h ([2]; J774 macrophage cell line, extract, fractions and sub-fractions): 233 µg/mL | CC50 at 48 h [2, 4]: > 584 µM | SI: selectivity index (CC50/IC50) [3]: >233

EtOH
Macrophages CC50 [3]: 7.1 ± 0.6 µg/mL

— publication PMC9695682, “Flavonoids from Piper Species as Promising Antiprotozoal Agents against Giardia intestinalis: Structure-Activity Relationship and Drug-Likeness Studies” (Pharmaceuticals, 2022)
